Results published in ChEMBL document CHEMBL1201862, “PubChem BioAssay data set” (2004).
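Method: 48-hour compound exposure of cells in 96-well plates, five concentrations, linear interpolation of endpoints. GI50 marks 50% less growth.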 The source made the active and inactive calls. No stated cut-off is given here; in the data, active = GI50 up to about 1.1 µM and inactive = higher.

Experiments:
Test in all cases: NCI tumour cell line growth inhibition, 48 h
NCI-H522 = system: NCI-H522
MDA-N = system: MDA-N
SNB-19 = system: SNB-19
UACC-62 = system: UACC-62
UO-31 = system: UO-31
CCRF-CEM = system: CCRF-CEM
A549 = system: A549
A498 = system: A498
HOP-62 = system: HOP-62
TK-10 = system: TK-10
COLO 205 = system: COLO 205
MDA-MB-435 = system: MDA-MB-435
KM12 = system: KM12
M14 = system: M14
SW-620 = system: SW-620
LOX IMVI = system: LOX IMVI
SK-OV-3 = system: SK-OV-3
CAKI-1 = system: CAKI-1
NCI-H460 = system: NCI-H460
NCI-H226 = system: NCI-H226

Measured: GI50

CCCCCCCCCCCCCCCCCCNC(=O)C(N)Cc1ccc(OCc2ccccc2)cn1 (stereo unspecified)
inactive: NCI-H522 18.7 µM | MDA-N 26.5 µM | SNB-19 19.8 µM | UACC-62 16.7 µM | UO-31 17.3 µM | CCRF-CEM 13.5 µM | A549 19.5 µM | A498 20.3 µM | HOP-62 19 µM | TK-10 15.4 µM | COLO 205 15.4 µM | MDA-MB-435 17.3 µM | KM12 18.6 µM | M14 17.9 µM | SW-620 23.2 µM | LOX IMVI 17.4 µM | SK-OV-3 22.7 µM | CAKI-1 17.2 µM | NCI-H460 15.4 µM

CC1CC/C(=C\c2ccc(Cl)cc2)C2OC(N)=C(C#N)C(c3ccc(Cl)cc3)=C12 (stereo unspecified)
inactive: MDA-N 14.7 µM | SNB-19 20.4 µM | NCI-H226 11 µM | UACC-62 16.2 µM | UO-31 9.31 µM | CCRF-CEM 5.06 µM | HOP-62 2.18 µM | TK-10 25.7 µM | COLO 205 12.5 µM | MDA-MB-435 18.4 µM | KM12 11.7 µM | M14 16.2 µM | SW-620 21.4 µM | LOX IMVI 13 µM | SK-OV-3 18.2 µM | CAKI-1 15.1 µM

C[C@@H]1C(=O)CC2(O)[C@@]13C[C@@H](OC(=O)[C@@H]3O)[C@@H](C)[C@@]21COC1=O (stereo partly specified)
inactive: NCI-H522 > 100 µM | MDA-N > 100 µM | SNB-19 > 100 µM | NCI-H226 > 100 µM | UACC-62 > 100 µM | UO-31 > 100 µM | CCRF-CEM > 100 µM | A549 > 100 µM | HOP-62 > 100 µM | TK-10 > 100 µM | COLO 205 > 100 µM | MDA-MB-435 > 100 µM | KM12 > 100 µM | M14 > 100 µM | SW-620 > 100 µM | LOX IMVI > 100 µM | SK-OV-3 > 100 µM | NCI-H460 > 100 µM

O=C(Nc1ccccn1)/C(=C\C(=O)c1ccc(Cl)cc1)Nc1ccccc1
inactive: MDA-N > 10 µM | UACC-62 > 10 µM | CCRF-CEM > 10 µM | A549 > 10 µM | HOP-62 > 10 µM | TK-10 > 10 µM | COLO 205 > 10 µM | MDA-MB-435 > 10 µM | KM12 > 10 µM | M14 > 10 µM | SW-620 > 10 µM | LOX IMVI > 10 µM | SK-OV-3 > 10 µM | CAKI-1 > 10 µM

CC1(C)/C(=N\Nc2ccc([N+](=O)[O-])cc2[N+](=O)[O-])C2CCC1C2 (stereo unspecified)
inactive: NCI-H522 > 100 µM | MDA-N > 100 µM | SNB-19 > 100 µM | NCI-H226 > 100 µM | UACC-62 > 100 µM | UO-31 > 100 µM | CCRF-CEM > 10 µM | A549 > 100 µM | HOP-62 74.5 µM | TK-10 > 100 µM | COLO 205 > 100 µM | MDA-MB-435 > 100 µM | KM12 30.1 µM | M14 > 100 µM | SW-620 > 100 µM | LOX IMVI > 100 µM | SK-OV-3 27.7 µM | CAKI-1 > 100 µM | NCI-H460 > 100 µM

COC(=O)C1=CC(=O)OC1(OO)c1ccc(Br)cc1 (stereo unspecified)
inactive: NCI-H522 > 100 µM | MDA-N > 100 µM | SNB-19 > 100 µM | NCI-H226 > 100 µM | UACC-62 > 100 µM | UO-31 > 100 µM | CCRF-CEM 27 µM | A549 > 100 µM | TK-10 > 100 µM | COLO 205 44.3 µM | MDA-MB-435 > 100 µM | KM12 > 100 µM | M14 > 100 µM | SW-620 62.8 µM | LOX IMVI 48.5 µM | SK-OV-3 > 100 µM | CAKI-1 > 100 µM | NCI-H460 > 100 µM

CN1CCC2(CC1)SSC1(CCN(C)CC1)S2
inactive: MDA-N > 100 µM | SNB-19 69.3 µM | UACC-62 46.7 µM | UO-31 > 100 µM | CCRF-CEM > 100 µM | A549 > 100 µM | HOP-62 > 100 µM | COLO 205 80.2 µM | MDA-MB-435 > 100 µM | KM12 > 100 µM | M14 > 100 µM | SW-620 > 100 µM | LOX IMVI 2.35 µM | SK-OV-3 > 100 µM | NCI-H460 > 100 µM

O=c1cc(NNc2ccc(F)cc2)[nH]c(=O)[nH]1
inactive: MDA-N 16.4 µM | SNB-19 19.3 µM | NCI-H226 24.6 µM | UACC-62 15.1 µM | UO-31 17.9 µM | CCRF-CEM 12.9 µM | A549 18.3 µM | A498 35.3 µM | HOP-62 17.1 µM | TK-10 22 µM | COLO 205 16.5 µM | KM12 11.7 µM | M14 8.85 µM | SW-620 17.5 µM | LOX IMVI > 100 µM | SK-OV-3 39.1 µM | NCI-H460 19.4 µM
